{"source": "paper PMC8286840", "about": "“Identifying SARS-CoV-2 antiviral compounds by screening for small molecule inhibitors of Nsp3 papain-like protease” (Biochemical Journal, 2021)", "key": {"[1]": {"target": "T1, SARS-CoV-2 PLpro (nsp3 1564–1878) (Severe acute respiratory syndrome coronavirus 2, UniProt P0DTD1)", "assay": "biochemical", "set-up": "FRET-quenched peptide (Pro3) cleavage by PLpro, 10 min pre-incubation, slope over 20 min, normalised to no-compound control", "conditions": "low concentration screen, read-out: % of control remaining"}, "[2]": {"target": "T1, SARS-CoV-2 PLpro (nsp3 1564–1878)", "assay": "biochemical", "set-up": "FRET-quenched peptide (Pro3) cleavage by PLpro, 10 min pre-incubation, slope over 20 min, normalised to no-compound control", "conditions": "high concentration screen, read-out: % of control remaining"}}, "note": "Counter-ions that a name gives are not always drawn. Like-named read-outs stand apart in the source and are kept apart here."}
{"compound": "O=C(O)C1=CCCN(CCON=C(c2ccccc2)c2ccccc2)C1", "note": "[NO-711 hydrochloride]", "values": [{"measurement": "remaining activity at 1.25 µM", "setting": "[1]; Well no.=1149", "result": 92.4, "unit": "%"}, {"measurement": "remaining activity at 3.75 µM", "setting": "[2]; Well no.=1149", "result": 88.4, "unit": "%"}]}
{"compound": "CSc1ccc(C(=O)/C=C/c2cc(C)c(OC(C)(C)C(=O)O)c(C)c2)cc1", "note": "[Elafibranor]", "values": [{"measurement": "remaining activity at 1.25 µM", "setting": "[1]; Well no.=8106", "result": 96.6, "unit": "%"}, {"measurement": "remaining activity at 3.75 µM", "setting": "[2]; Well no.=8106", "result": 95.3, "unit": "%"}]}
{"compound": "CCCCc1oc2ccccc2c1C(=O)c1cc(I)c(OCCN(CC)CC)c(I)c1", "note": "[Amiodarone hydrochloride]", "values": [{"measurement": "remaining activity at 1.25 µM", "setting": "[1]; Well no.=198", "result": 97, "unit": "%"}, {"measurement": "remaining activity at 3.75 µM", "setting": "[2]; Well no.=198", "result": 98.7, "unit": "%"}]}
{"compound": "CS(=O)(=O)N1CCc2c(-c3cnc(N)nc3)nc(N3CCOCC3)nc21", "note": "[CH5132799]", "values": [{"measurement": "remaining activity at 1.25 µM", "setting": "[1]; Well no.=5348", "result": 95.8, "unit": "%"}, {"measurement": "remaining activity at 3.75 µM", "setting": "[2]; Well no.=5348", "result": 96, "unit": "%"}]}
{"compound": "NS(=O)(=O)c1ccc(N=Nc2c(O)[nH]c3ccc(Br)cc23)cc1", "note": "[Cdk2 Inhibitor II]", "values": [{"measurement": "remaining activity at 1.25 µM", "setting": "[1]; Well no.=2383", "result": 102, "unit": "%"}, {"measurement": "remaining activity at 3.75 µM", "setting": "[2]; Well no.=2383", "result": 103, "unit": "%"}]}
{"compound": "CCOCC(O)COc1ccc(NC(=O)CC[S+](C)C)cc1", "note": "(stereo not shown) [Suplatast tosylate]", "values": [{"measurement": "remaining activity at 1.25 µM", "setting": "[1]; Well no.=4714", "result": 107, "unit": "%"}, {"measurement": "remaining activity at 3.75 µM", "setting": "[2]; Well no.=4714", "result": 106, "unit": "%"}]}
{"compound": "CN1CCC(NC(=O)c2cc(-c3c(O)cc(O)cc3Oc3ccc([N+](=O)[O-])cc3)on2)CC1", "note": "[NMS-E973]", "values": [{"measurement": "remaining activity at 1.25 µM", "setting": "[1]; Well no.=8620", "result": 94.8, "unit": "%"}, {"measurement": "remaining activity at 3.75 µM", "setting": "[2]; Well no.=8620", "result": 89.2, "unit": "%"}]}
{"compound": "C[C@H]1C(=O)CC[C@@H]2[C@]1(C)CC[C@H]1[C@@]2(C)CC[C@@]2(C)[C@@H]3CC(C)(C)CC[C@]3(C)CC[C@]12C", "note": "[Friedelin]", "values": [{"measurement": "remaining activity at 1.25 µM", "setting": "[1]; Well no.=3208", "result": 109, "unit": "%"}, {"measurement": "remaining activity at 3.75 µM", "setting": "[2]; Well no.=3208", "result": 110, "unit": "%"}]}
{"compound": "O=C(O)c1cc([N+](=O)[O-])ccc1NCCCc1ccccc1", "note": "[5-Nitro-2-(3-phenylpropylamino)benzoic acid]", "values": [{"measurement": "remaining activity at 1.25 µM", "setting": "[1]; Well no.=1047", "result": 99.5, "unit": "%"}, {"measurement": "remaining activity at 3.75 µM", "setting": "[2]; Well no.=1047", "result": 99.3, "unit": "%"}]}
{"compound": "C[C@]1(C(=O)O)[C@@H]2CC[C@@H](O2)[C@@]1(C)C(=O)O", "note": "[Cantharidic Acid]", "values": [{"measurement": "remaining activity at 1.25 µM", "setting": "[1]; Well no.=378", "result": 87.8, "unit": "%"}, {"measurement": "remaining activity at 3.75 µM", "setting": "[2]; Well no.=378", "result": 88.7, "unit": "%"}]}
{"compound": "C[C@@H](O)[C@H]1C(=O)N2C(C(=O)[O-])=C(SC3Cn4cnc[n+]4C3)[C@H](C)[C@H]12", "note": "(stereo partly shown) [Biapenem]", "values": [{"measurement": "remaining activity at 1.25 µM", "setting": "[1]; Well no.=5197", "result": 99.1, "unit": "%"}, {"measurement": "remaining activity at 3.75 µM", "setting": "[2]; Well no.=5197", "result": 100, "unit": "%"}]}
{"compound": "CC(C)[C@H](CO)Nc1nc(Nc2cccc(Cl)c2)c2ncn(C(C)C)c2n1", "note": "[Purvalanol A]", "values": [{"measurement": "remaining activity at 1.25 µM", "setting": "[1]; Well no.=1050", "result": 86.7, "unit": "%"}, {"measurement": "remaining activity at 1.25 µM", "setting": "[1]; Well no.=2606", "result": 91.1, "unit": "%"}, {"measurement": "remaining activity at 3.75 µM", "setting": "[2]; Well no.=1050", "result": 86.5, "unit": "%"}, {"measurement": "remaining activity at 3.75 µM", "setting": "[2]; Well no.=2606", "result": 92, "unit": "%"}]}
{"compound": "O=C(O)c1cc(=O)c2ccccc2[nH]1", "note": "[Kynurenic acid]", "values": [{"measurement": "remaining activity at 1.25 µM", "setting": "[1]; Well no.=1117", "result": 97.8, "unit": "%"}, {"measurement": "remaining activity at 1.25 µM", "setting": "[1]; Well no.=7403", "result": 99.6, "unit": "%"}, {"measurement": "remaining activity at 3.75 µM", "setting": "[2]; Well no.=1117", "result": 99.5, "unit": "%"}, {"measurement": "remaining activity at 3.75 µM", "setting": "[2]; Well no.=7403", "result": 99.4, "unit": "%"}]}
{"compound": "O=c1[nH]c(=O)n([C@H]2C[C@H](O)[C@@H](CO)O2)cc1/C=C/Br", "note": "[(E)-5-(2-Bromovinyl)-2'-deoxyuridine]", "values": [{"measurement": "remaining activity at 1.25 µM", "setting": "[1]; Well no.=83", "result": 94.9, "unit": "%"}, {"measurement": "remaining activity at 3.75 µM", "setting": "[2]; Well no.=83", "result": 94.4, "unit": "%"}]}
{"compound": "NC(=O)c1cc[n+](CC2=C(C(=O)O)N3C(=O)[C@@H](NC(=O)[C@@H](c4ccccc4)S(=O)(=O)[O-])[C@H]3SC2)cc1", "note": "[Cefsulodin sodium salt hydrate]", "values": [{"measurement": "remaining activity at 1.25 µM", "setting": "[1]; Well no.=92", "result": 98.3, "unit": "%"}, {"measurement": "remaining activity at 3.75 µM", "setting": "[2]; Well no.=92", "result": 99.3, "unit": "%"}]}
{"compound": "Clc1ccc(Nc2nc3ccccc3c3nc(C4CCCCC4)[nH]c23)cc1Cl", "note": "[LUF6000]", "values": [{"measurement": "remaining activity at 1.25 µM", "setting": "[1]; Well no.=8661", "result": 93.9, "unit": "%"}, {"measurement": "remaining activity at 3.75 µM", "setting": "[2]; Well no.=8661", "result": 93.1, "unit": "%"}]}
{"compound": "O=C(/C=C/c1ccc(O)cc1)CC(=O)/C=C/c1ccc(O)cc1", "note": "[Bis demethoxycurcumin]", "values": [{"measurement": "remaining activity at 1.25 µM", "setting": "[1]; Well no.=3466", "result": 102, "unit": "%"}, {"measurement": "remaining activity at 3.75 µM", "setting": "[2]; Well no.=3466", "result": 103, "unit": "%"}]}
{"compound": "CCCc1cc(=O)oc2c(C(=O)N3CCCc4ccccc43)c(OC)cc(OC)c12", "note": "[BNS-22]", "values": [{"measurement": "remaining activity at 1.25 µM", "setting": "[1]; Well no.=5907", "result": 101, "unit": "%"}, {"measurement": "remaining activity at 3.75 µM", "setting": "[2]; Well no.=5907", "result": 98.7, "unit": "%"}]}
{"compound": "CN(C/C=C/C#CC(C)(C)C)Cc1cccc2ccccc12", "values": [{"measurement": "remaining activity at 1.25 µM", "setting": "[1]; Well no.=3894", "result": 102, "unit": "%"}, {"measurement": "remaining activity at 3.75 µM", "setting": "[2]; Well no.=3894", "result": 103, "unit": "%"}]}
{"compound": "Cc1cc(C)c(S(=O)(=O)Nc2cccc(C(F)(F)F)c2)c(C)c1", "note": "[m -3M3FBS]", "values": [{"measurement": "remaining activity at 1.25 µM", "setting": "[1]; Well no.=5841", "result": 99.6, "unit": "%"}, {"measurement": "remaining activity at 3.75 µM", "setting": "[2]; Well no.=5841", "result": 98.2, "unit": "%"}]}
{"compound": "COc1cc2c(cc1OC(C)C)[C@H](c1ccc(Cl)cc1)N(c1ccc(N(C)C[C@H]3CC[C@H](N4CCN(C)C(=O)C4)CC3)cc1)C(=O)C2", "note": "[NVP-CGM097]", "values": [{"measurement": "remaining activity at 1.25 µM", "setting": "[1]; Well no.=6974", "result": 95.7, "unit": "%"}, {"measurement": "remaining activity at 3.75 µM", "setting": "[2]; Well no.=6974", "result": 94.5, "unit": "%"}]}
